Experimental data published in patent publication US9932637B2, “Genetic polymorphisms associated with cardiovascular disorders and drug response, methods of detection and uses thereof” (CELERA CORPORATION, priority 2003, dated 2018).

Tested on: patients with prior myocardial infarction (CARE study)
Assay: CARE: association of SNPs with pravastatin treatment in cardiovascular events prevention (logistic regression, odds ratio pravastatin vs placebo by genotype; Table 8)
Type: in vivo, human
Details: for MI (Fatal/Nonfatal), n/total (%) / Nonfatal MI (Probable/Definite), n/total (%) / Nonfatal MI (def & prob), n/total (%) / Fatal/Nonfatal MI (def & prob), n/total (%) / Hosp. for Unstable Angina, n/total (%): MJD hCV16189421, All Patients; for MI (Fatal/Nonfatal), n/total (%) / Nonfatal MI (Probable/Definite), n/total (%) / Nonfatal MI (def & prob), n/total (%) / Fatal/Nonfatal MI (def & prob), n/total (%) / Hosp. for Unstable Angina, n/total (%) / Percutaneous Transluminal Coronary Angioplas, n/total (%) / Fatal/Nonfatal Cerebrovascular Disease, n/total (%): Prava arm; for Percutaneous Transluminal Coronary Angioplas, n/total (%): MMP27 hCV7492601, All Patients; for Total Coronary Heart Disease Events, n/total (%) / Fatal/Non-fatal Atherosclerotic CV Disease, n/total (%) / Hosp. for Cardiovascular Disease, n/total (%) / Total Cardiovascular Disease Events, n/total (%) / Prava vs. Placebo Odds Ratio, 0 Rare Alleles / Prava vs. Placebo Odds Ratio, 1 Rare Alleles / Prava vs. Placebo Odds Ratio, 2 Rare Alleles / Fatal Atherosclerotic Cardiovascular Disease, n/total (%) / Cardiovascular Mortality, n/total (%): All Patients; for Total Coronary Heart Disease Events, n/total (%) / Fatal/Non-fatal Atherosclerotic CV Disease, n/total (%) / Hosp. for Cardiovascular Disease, n/total (%) / Total Cardiovascular Disease Events, n/total (%) / Fatal Atherosclerotic Cardiovascular Disease, n/total (%) / Cardiovascular Mortality, n/total (%): Prava; for Fatal/Nonfatal Cerebrovascular Disease, n/total (%): NID2 hCV15876071, All Patients
Source text: In order to identify genetic markers associated with acute coronary events (e.g. MI, stroke, unstable angina, congestive heart failure, etc.) or response to statin treatment for the prevention of coronary events, samples from the Cholesterol and Recurrent Events (CARE) study (a randomized multicentral double-blinded trial on secondary prevention of acute coronary events with pravastatin) (Sacks et al., 1991, Am. J. Cardiol. 68: 1436-1446) were genotyped. A well-documented myocardial infarction (MI) was one of the enrollment criteria for entry into the CARE study. Patients were enrolled in the CARE trial from 80 participating study centers. […] Patients were randomized to receive either 40 mg of pravastatin once daily or a matching placebo. The primary endpoint of the trial was death from coronary heart disease and the median duration of follow-up was 5.0 years (range, 4.0 to 6.2 years). […] Secondary endpoints of other related cardiovascular or metabolic disease events, and changes in clinical variables were also recorded in pravastatin-treated and placebo groups. All individuals included in the study had signed a written informed consent form and the study protocol was approved by the respective Institutional Review Boards (IRBs).
For genotyping SNPs in CARE patient samples, DNA was extracted from blood samples using conventional DNA extraction methods such as the QIA-amp kit from Qiagen. Genotypes were obtained on an ABI PRISM® 7900HT Sequence Detection PCR system (Applied Biosystems, Foster City, Calif.) by kinetic allele-specific PCR, similar to the method described by Germer et al. (Germer S., Holland M. J., Higuchi R. 2000, Genome Res. 10: 258-266).
Statistical analysis for association of SNPs with pravastatin treatment in cardiovascular events prevention (Table 8) was carried out using an overall logistic regression model that included an intercept, a parameter for the effect of a genotype containing two rare alleles versus a genotype containing no rare alleles, a parameter for the effect of a genotype containing one rare allele versus a genotype containing no rare alleles, a parameter for the effect of use of pravastatin versus the use of placebo, and parameters for the interaction effects between SNP genotypes and pravastatin use. The test of the overall model is a chi-square test with two degrees of freedom for analyses containing all three genotypes, and one degree of freedom for analyses containing two genotypes.
Effect sizes were estimated through odds ratios (pravastatin group versus placebo) for carriers of each genotype (groups of 0, 1, and 2 minor allele carriers). The effect was considered to be significant if p-value for testing whether any of the interactions between SNP genotypes and pravastatin use were <0.05. […] Odds ratios less than one indicate that the specific SNP allele has a protective effect and odds ratios greater than one indicate that the specific SNP allele has an adverse effect.

[1] = MTRR hCV7580070, 2 Rare Alleles, n/total 2/22
[2] = MTRR hCV7580070, 2 Rare Alleles, n/total 5/22
[3] = MTRR hCV7580070, Fatal/Non-fatal Atherosclerotic CV Disease
[4] = MTRR hCV7580070, Hosp. for Cardiovascular Disease
[5] = MTRR hCV7580070, Total Cardiovascular Disease Events
[6] = MTRR hCV7580070, Total Coronary Heart Disease Events
[7] = NPC1 hCV7490135, 1 Rare Allele, n/total 26/742
[8] = NPC1 hCV7490135, 2 Rare Alleles, n/total 3/324

Compound: CC[C@H](C)C(=O)O[C@H]1C[C@H](O)C=C2C=C[C@H](C)[C@H](CC[C@@H](O)C[C@@H](O)CC(=O)O)[C@H]21 [pravastatin]
- MI (Fatal/Nonfatal), n/total (%) (0 Rare Alleles): (8.6%)
- Nonfatal MI (Probable/Definite), n/total (%) (0 Rare Alleles): (8.0%)
- Nonfatal MI (def & prob), n/total (%) (0 Rare Alleles): (7.5%)
- Fatal/Nonfatal MI (def & prob), n/total (%) (1 Rare Allele): (11.9%)
- Hosp. for Unstable Angina, n/total (%) (1 Rare Allele): (17.6%)
- MI (Fatal/Nonfatal), n/total (%) (1 Rare Allele): (12.1%)
- Nonfatal MI (Probable/Definite), n/total (%) (1 Rare Allele): (11.3%)
- Nonfatal MI (def & prob), n/total (%) (1 Rare Allele): (11.2%)
- Fatal/Nonfatal MI (def & prob), n/total (%) (2 Rare Alleles): (11.2%)
- Hosp. for Unstable Angina, n/total (%) (2 Rare Alleles): (10.1%)
- MI (Fatal/Nonfatal), n/total (%) (2 Rare Alleles): (11.2%)
- Nonfatal MI (Probable/Definite), n/total (%) (2 Rare Alleles): (11.2%)
- Nonfatal MI (def & prob), n/total (%) (2 Rare Alleles): (11.2%)
- Percutaneous Transluminal Coronary Angioplas, n/total (%) (0 Rare Alleles): (9.7%)
- Percutaneous Transluminal Coronary Angioplas, n/total (%) (1 Rare Allele): (9.1%)
- Percutaneous Transluminal Coronary Angioplas, n/total (%) (2 Rare Alleles): (8.2%)
- Total Coronary Heart Disease Events, n/total (%) (MTRR hCV7580070, 0 Rare Alleles, n/total 338/1201): (28.1%)
- Fatal/Non-fatal Atherosclerotic CV Disease, n/total (%) (MTRR hCV7580070, 0 Rare Alleles, n/total 390/1201): (32.5%)
- Hosp. for Cardiovascular Disease, n/total (%) (MTRR hCV7580070, 0 Rare Alleles, n/total 466/1201): (38.8%)
- Total Cardiovascular Disease Events, n/total (%) (MTRR hCV7580070, 0 Rare Alleles, n/total 480/1201): (40.0%)
- Total Coronary Heart Disease Events, n/total (%) (MTRR hCV7580070, 1 Rare Allele, n/total 98/284): (34.5%)
- Fatal/Non-fatal Atherosclerotic CV Disease, n/total (%) (MTRR hCV7580070, 1 Rare Allele, n/total 110/284): (38.7%)
- Hosp. for Cardiovascular Disease, n/total (%) (MTRR hCV7580070, 1 Rare Allele, n/total 135/284): (47.5%)
- Total Cardiovascular Disease Events, n/total (%) (MTRR hCV7580070, 1 Rare Allele, n/total 137/284): (48.2%)
- Fatal/Non-fatal Atherosclerotic CV Disease, n/total (%) [1]: (9.1%)
- Total Coronary Heart Disease Events, n/total (%) [1]: (9.1%)
- Hosp. for Cardiovascular Disease, n/total (%) [2]: (22.7%)
- Total Cardiovascular Disease Events, n/total (%) [2]: (22.7%)
- Prava vs. Placebo Odds Ratio, 0 Rare Alleles [3]: 0.74
- Prava vs. Placebo Odds Ratio, 1 Rare Alleles [3]: 0.95
- Prava vs. Placebo Odds Ratio, 2 Rare Alleles [3]: 0.09
- Prava vs. Placebo Odds Ratio, 0 Rare Alleles [4]: 0.71
- Prava vs. Placebo Odds Ratio, 1 Rare Alleles [4]: 1.04
- Prava vs. Placebo Odds Ratio, 2 Rare Alleles [4]: 0.22
- Prava vs. Placebo Odds Ratio, 0 Rare Alleles [5]: 0.71
- Prava vs. Placebo Odds Ratio, 1 Rare Alleles [5]: 1.01
- Prava vs. Placebo Odds Ratio, 2 Rare Alleles [5]: 0.22
- Prava vs. Placebo Odds Ratio, 0 Rare Alleles [6]: 0.73
- Prava vs. Placebo Odds Ratio, 1 Rare Alleles [6]: 1.00
- Prava vs. Placebo Odds Ratio, 2 Rare Alleles [6]: 0.12
- Fatal/Nonfatal Cerebrovascular Disease, n/total (%) (0 Rare Alleles): (5.7%)
- Fatal/Nonfatal Cerebrovascular Disease, n/total (%) (1 Rare Allele): (4.1%)
- Fatal/Nonfatal Cerebrovascular Disease, n/total (%) (2 Rare Alleles): (1.7%)
- Fatal Atherosclerotic Cardiovascular Disease, n/total (%) (NPC1 hCV7490135, 0 Rare Alleles, n/total 25/437): (5.7%)
- Cardiovascular Mortality, n/total (%) (NPC1 hCV7490135, 0 Rare Alleles, n/total 26/437): (5.9%)
- Total Coronary Heart Disease Events, n/total (%) (NPC1 hCV7490135, 0 Rare Alleles, n/total 146/437): (33.4%)
- Fatal/Non-fatal Atherosclerotic CV Disease, n/total (%) (NPC1 hCV7490135, 0 Rare Alleles, n/total 165/437): (37.8%)
- Hosp. for Cardiovascular Disease, n/total (%) (NPC1 hCV7490135, 0 Rare Alleles, n/total 194/437): (44.4%)
- Total Cardiovascular Disease Events, n/total (%) (NPC1 hCV7490135, 0 Rare Alleles, n/total 202/437): (46.2%)
- Cardiovascular Mortality, n/total (%) [7]: (3.5%)
- Fatal Atherosclerotic Cardiovascular Disease, n/total (%) [7]: (3.5%)
- Total Coronary Heart Disease Events, n/total (%) (NPC1 hCV7490135, 1 Rare Allele, n/total 213/742): (28.7%)
- Fatal/Non-fatal Atherosclerotic CV Disease, n/total (%) (NPC1 hCV7490135, 1 Rare Allele, n/total 246/742): (33.2%)
- Hosp. for Cardiovascular Disease, n/total (%) (NPC1 hCV7490135, 1 Rare Allele, n/total 295/742): (39.8%)
- Total Cardiovascular Disease Events, n/total (%) (NPC1 hCV7490135, 1 Rare Allele, n/total 303/742): (40.8%)
- Cardiovascular Mortality, n/total (%) [8]: (0.9%)
- Fatal Atherosclerotic Cardiovascular Disease, n/total (%) [8]: (0.9%)
- Total Coronary Heart Disease Events, n/total (%) (NPC1 hCV7490135, 2 Rare Alleles, n/total 81/324): (25.0%)
